Reference: ChEMBL document CHEMBL4428109, “Structure-activity relationship studies of non-carboxylic acid peroxisome proliferator-activated receptor α/δ (PPARα/δ) dual agonists” (Bioorg Med Chem, 2016)
pEC50: −log10 of the molar value. The source made the active and inactive calls. The calls are words filed in the database; no cut-off is given here.

Assays:
[1] = target: T1, Peroxisome proliferator-activated receptor alpha (Homo sapiens) (UniProt Q07869); experiment: Agonist activity at N-terminal Gal4 fused human PPARalpha LBD transfected in HEK293 cells at < 10 uM after 24 hrs by luciferase reporter gene assay; type: cell-based
T1 sequence (whole entry): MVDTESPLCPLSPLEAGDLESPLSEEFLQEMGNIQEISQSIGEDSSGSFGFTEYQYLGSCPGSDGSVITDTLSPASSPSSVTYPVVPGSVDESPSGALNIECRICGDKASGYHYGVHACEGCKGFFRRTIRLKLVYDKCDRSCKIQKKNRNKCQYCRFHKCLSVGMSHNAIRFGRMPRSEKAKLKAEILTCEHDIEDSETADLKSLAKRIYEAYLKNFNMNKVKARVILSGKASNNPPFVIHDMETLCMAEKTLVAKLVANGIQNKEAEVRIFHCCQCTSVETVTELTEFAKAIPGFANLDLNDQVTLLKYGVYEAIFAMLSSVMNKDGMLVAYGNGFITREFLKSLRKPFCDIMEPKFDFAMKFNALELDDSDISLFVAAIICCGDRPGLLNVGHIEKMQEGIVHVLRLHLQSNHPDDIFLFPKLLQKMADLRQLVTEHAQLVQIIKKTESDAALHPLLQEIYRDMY

[2] = target: T2, Peroxisome proliferator-activated receptor delta (Homo sapiens) (UniProt Q03181); experiment: Agonist activity at N-terminal Gal4 fused human PPARdelta LBD transfected in HEK293 cells at < 10 uM after 24 hrs by luciferase reporter gene assay; type: cell-based
T2 sequence (whole entry): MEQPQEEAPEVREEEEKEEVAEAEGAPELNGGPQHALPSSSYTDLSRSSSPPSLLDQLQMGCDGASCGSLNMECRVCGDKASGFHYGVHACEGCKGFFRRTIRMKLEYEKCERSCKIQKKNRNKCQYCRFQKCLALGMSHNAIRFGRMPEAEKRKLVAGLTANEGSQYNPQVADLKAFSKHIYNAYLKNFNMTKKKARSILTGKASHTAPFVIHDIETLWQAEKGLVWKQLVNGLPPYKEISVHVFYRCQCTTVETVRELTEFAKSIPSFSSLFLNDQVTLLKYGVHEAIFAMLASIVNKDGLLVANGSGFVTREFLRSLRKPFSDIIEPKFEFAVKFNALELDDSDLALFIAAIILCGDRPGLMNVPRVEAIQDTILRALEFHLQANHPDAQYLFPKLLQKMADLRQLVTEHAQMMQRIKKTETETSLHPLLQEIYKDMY

[3] = target: T3, Peroxisome proliferator-activated receptor gamma (Homo sapiens) (UniProt P37231); experiment: Agonist activity at N-terminal Gal4 fused human PPARgamma LBD transfected in HEK293 cells at < 10 uM after 24 hrs by luciferase reporter gene assay; type: cell-based
T3 sequence (whole entry): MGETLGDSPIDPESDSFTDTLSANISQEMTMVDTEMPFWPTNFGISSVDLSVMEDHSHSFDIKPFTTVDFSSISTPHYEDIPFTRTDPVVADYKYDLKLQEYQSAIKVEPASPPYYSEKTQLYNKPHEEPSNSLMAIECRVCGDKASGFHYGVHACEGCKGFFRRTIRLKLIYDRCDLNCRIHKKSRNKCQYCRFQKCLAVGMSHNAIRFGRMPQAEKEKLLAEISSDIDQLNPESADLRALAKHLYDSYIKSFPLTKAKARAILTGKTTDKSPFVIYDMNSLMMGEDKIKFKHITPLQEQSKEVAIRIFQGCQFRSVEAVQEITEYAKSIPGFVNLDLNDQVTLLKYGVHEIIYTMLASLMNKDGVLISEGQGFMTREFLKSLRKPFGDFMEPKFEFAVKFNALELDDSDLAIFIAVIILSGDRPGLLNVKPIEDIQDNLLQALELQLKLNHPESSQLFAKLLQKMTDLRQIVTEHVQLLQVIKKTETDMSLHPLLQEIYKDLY

[4] = target: T4, Peroxisome proliferator-activated receptor alpha (Homo sapiens, UniProt Q07869); experiment: Agonist activity at N-terminal Gal4 fused human PPARalpha LBD transfected in HEK293 cells after 24 hrs by luciferase reporter gene assay; type: cell-based
T4 sequence (Q07869 whole entry): T1 sequence (whole entry)

[5] = target: T5, Peroxisome proliferator-activated receptor delta (Homo sapiens, UniProt Q03181); experiment: Agonist activity at N-terminal Gal4 fused human PPARdelta LBD transfected in HEK293 cells after 24 hrs by luciferase reporter gene assay; type: cell-based
T5 sequence (Q03181 whole entry): T2 sequence (whole entry)

[6] = target: T1, Peroxisome proliferator-activated receptor alpha (Homo sapiens); experiment: Agonist activity at N-terminal Gal4 fused human PPARalpha LBD transfected in HEK293 cells after 24 hrs by luciferase reporter gene assay relative to GW7647; type: cell-based
[7] = target: T2, Peroxisome proliferator-activated receptor delta (Homo sapiens); experiment: Agonist activity at N-terminal Gal4 fused human PPARdelta LBD transfected in HEK293 cells after 24 hrs by luciferase reporter gene assay relative to GW501516; type: cell-based
[8] = target: T6, Retinoic acid receptor RXR-alpha (Homo sapiens) (UniProt P19793); experiment: Agonist activity at RXRalpha (unknown origin) at < 20 uM
T6 sequence (whole entry): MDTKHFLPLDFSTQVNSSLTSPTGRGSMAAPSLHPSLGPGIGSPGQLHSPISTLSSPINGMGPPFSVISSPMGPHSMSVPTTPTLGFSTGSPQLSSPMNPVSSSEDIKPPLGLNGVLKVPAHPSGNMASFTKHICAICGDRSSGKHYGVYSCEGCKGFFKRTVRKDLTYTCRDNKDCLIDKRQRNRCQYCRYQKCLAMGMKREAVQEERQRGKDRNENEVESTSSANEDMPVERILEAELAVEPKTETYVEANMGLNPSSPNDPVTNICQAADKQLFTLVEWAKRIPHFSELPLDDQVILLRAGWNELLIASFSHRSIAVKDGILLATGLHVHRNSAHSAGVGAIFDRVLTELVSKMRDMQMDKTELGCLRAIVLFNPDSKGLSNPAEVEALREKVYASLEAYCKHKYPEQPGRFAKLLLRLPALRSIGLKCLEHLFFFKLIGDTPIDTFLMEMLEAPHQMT

[9] = target: T7, Retinoic acid receptor RXR-beta (Homo sapiens) (UniProt P28702); experiment: Agonist activity at RXRbeta (unknown origin) at < 20 uM
T7 sequence (whole entry): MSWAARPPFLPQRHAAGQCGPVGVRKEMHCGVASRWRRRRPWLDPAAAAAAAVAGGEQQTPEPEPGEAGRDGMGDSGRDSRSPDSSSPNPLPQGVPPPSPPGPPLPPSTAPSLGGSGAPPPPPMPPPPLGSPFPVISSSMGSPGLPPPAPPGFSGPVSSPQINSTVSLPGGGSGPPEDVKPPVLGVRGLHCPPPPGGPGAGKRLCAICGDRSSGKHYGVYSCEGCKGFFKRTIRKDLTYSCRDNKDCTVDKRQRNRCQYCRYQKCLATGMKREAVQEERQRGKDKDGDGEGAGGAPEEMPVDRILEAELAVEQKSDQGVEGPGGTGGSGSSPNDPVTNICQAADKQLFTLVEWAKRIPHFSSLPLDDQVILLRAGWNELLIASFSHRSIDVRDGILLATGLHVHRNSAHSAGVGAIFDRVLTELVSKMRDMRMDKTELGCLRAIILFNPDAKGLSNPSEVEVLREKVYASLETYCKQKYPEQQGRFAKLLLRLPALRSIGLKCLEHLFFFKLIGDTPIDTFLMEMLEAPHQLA

[10] = target: T8, Retinoic acid receptor RXR-gamma (Homo sapiens) (UniProt P48443); experiment: Agonist activity at RXRgamma (unknown origin) at < 20 uM
T8 sequence (whole entry): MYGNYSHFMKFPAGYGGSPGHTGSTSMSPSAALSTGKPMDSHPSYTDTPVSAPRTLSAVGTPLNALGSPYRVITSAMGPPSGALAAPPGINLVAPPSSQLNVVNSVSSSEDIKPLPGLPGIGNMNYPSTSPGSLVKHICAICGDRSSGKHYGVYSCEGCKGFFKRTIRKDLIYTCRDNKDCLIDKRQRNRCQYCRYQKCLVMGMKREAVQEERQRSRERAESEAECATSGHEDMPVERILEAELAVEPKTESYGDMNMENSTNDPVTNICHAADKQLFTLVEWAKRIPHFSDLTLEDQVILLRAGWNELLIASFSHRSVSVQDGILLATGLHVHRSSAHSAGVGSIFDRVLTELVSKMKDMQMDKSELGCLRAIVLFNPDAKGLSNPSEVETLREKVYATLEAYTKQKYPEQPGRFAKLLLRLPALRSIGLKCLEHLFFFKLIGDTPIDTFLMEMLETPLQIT

[11] = target: T9, Oxysterols receptor LXR-alpha (Homo sapiens) (UniProt Q13133); experiment: Agonist activity at LXRalpha (unknown origin) at < 20 uM
T9 sequence (whole entry): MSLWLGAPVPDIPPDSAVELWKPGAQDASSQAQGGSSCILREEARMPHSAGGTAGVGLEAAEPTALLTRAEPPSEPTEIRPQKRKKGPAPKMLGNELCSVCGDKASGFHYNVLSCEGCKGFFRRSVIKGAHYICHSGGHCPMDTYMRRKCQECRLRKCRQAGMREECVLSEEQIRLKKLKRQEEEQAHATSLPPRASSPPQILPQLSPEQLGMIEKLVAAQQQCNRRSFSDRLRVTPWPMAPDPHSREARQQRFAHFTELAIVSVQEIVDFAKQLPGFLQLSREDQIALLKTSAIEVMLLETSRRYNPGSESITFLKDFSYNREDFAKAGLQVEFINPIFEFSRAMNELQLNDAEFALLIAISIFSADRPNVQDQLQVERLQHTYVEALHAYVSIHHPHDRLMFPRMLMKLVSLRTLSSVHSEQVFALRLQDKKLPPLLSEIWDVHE

[12] = target: T10, Oxysterols receptor LXR-beta (Homo sapiens) (UniProt P55055); experiment: Agonist activity at LXRbeta (unknown origin) at < 20 uM
T10 sequence (whole entry): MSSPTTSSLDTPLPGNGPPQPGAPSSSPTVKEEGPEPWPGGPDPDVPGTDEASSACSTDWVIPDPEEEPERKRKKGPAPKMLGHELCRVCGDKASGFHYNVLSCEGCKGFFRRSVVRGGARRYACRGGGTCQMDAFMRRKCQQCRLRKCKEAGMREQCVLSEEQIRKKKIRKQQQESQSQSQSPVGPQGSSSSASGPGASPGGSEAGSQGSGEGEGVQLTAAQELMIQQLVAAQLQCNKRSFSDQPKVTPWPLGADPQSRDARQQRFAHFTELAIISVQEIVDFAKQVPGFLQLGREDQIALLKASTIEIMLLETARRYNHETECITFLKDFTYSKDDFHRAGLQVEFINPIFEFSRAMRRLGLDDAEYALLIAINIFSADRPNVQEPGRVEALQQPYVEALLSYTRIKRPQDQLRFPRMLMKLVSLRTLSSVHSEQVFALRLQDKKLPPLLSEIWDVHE

[13] = target: T11, Bile acid receptor (Homo sapiens) (UniProt Q96RI1); experiment: Agonist activity at FXR (unknown origin) at < 20 uM
T11 sequence (whole entry): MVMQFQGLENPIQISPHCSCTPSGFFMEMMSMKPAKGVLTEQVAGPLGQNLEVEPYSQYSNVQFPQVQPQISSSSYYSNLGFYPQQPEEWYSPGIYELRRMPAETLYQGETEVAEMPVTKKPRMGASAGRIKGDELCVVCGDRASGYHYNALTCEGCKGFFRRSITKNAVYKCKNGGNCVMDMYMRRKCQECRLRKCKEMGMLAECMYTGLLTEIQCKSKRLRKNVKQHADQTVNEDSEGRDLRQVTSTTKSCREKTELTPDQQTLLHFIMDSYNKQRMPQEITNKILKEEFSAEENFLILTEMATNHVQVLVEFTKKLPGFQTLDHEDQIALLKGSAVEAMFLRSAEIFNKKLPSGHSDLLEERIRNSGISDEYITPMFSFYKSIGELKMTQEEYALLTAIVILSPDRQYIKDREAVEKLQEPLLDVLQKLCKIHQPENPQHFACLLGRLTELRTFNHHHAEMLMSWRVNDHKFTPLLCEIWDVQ

Row | Activity [1] | Activity [2] | Activity [3] | pEC50 [4] | pEC50 [5] | Emax [6] [%] | Emax [7] [%] | Structure (SMILES) | further results
1 | inactive | inactive | inactive |  |  |  |  | COC(=O)NC(C)c1nc(-c2ccc(Oc3ccc(O)cc3)cc2)no1 (stereo not given) | 
2 |  |  |  | 7.77 | 7.64 | 10 to 40 | 5 to 15 | CC(=O)N[C@@H](C)c1nc(-c2ccc(Oc3ccc(OCc4ccccc4)cc3)cc2)no1 | 
3 | inactive | inactive |  |  |  | 10 to 40 |  | CC(=O)N[C@H](C)c1nc(-c2ccc(Oc3ccc(OCc4ccccc4)cc3)cc2)no1 | 
4 | inactive | inactive | inactive |  |  |  |  | CC(NC(=O)C(F)(F)F)c1nc(-c2ccc(Oc3ccc(O)cc3)cc2)no1 (stereo not given) | 

Further lines, the molecule ahead of its results:

Row | Structure (SMILES) | Activity [1] | Activity [2] | Activity [3] | pEC50 [4] | pEC50 [5] | Emax [6] [%] | Emax [7] [%] | further results
5 | CC(=O)NCc1nc(-c2ccc(Oc3ccc(OCc4ccccc4)cc3)cc2)no1 | inactive | inactive | inactive |  |  |  |  | 
6 | CCC(NC(C)=O)c1nc(-c2ccc(Oc3ccc(OCc4ccccc4)cc3)cc2)no1 (stereo not given) |  |  | inactive | 6.89 | 6.96 | 10 to 40 | 5 to 15 | 
7 | COC(=O)NC(C)c1nc(-c2ccc(Oc3ccc(OCc4ccccc4)cc3)cc2)no1 (stereo not given) |  |  | inactive | 7.00 | 6.54 | 10 to 40 | 5 to 15 | 
8 | CC(=O)NC(C)c1nc(-c2ccc(Oc3ccc(O)cc3)cc2)no1 (stereo not given) |  |  |  |  |  |  |  | Activity [8]: inactive; Activity [9]: inactive; Activity [10]: inactive; Activity [11]: inactive; Activity [12]: inactive; Activity [13]: inactive
9 | CC(N)c1nc(-c2ccc(Oc3ccc(OCc4ccccc4)cc3)cc2)no1 (stereo not given) | inactive |  |  |  |  |  |  | 
10 | CC(NC(=O)C(F)(F)F)c1nc(-c2ccc(Oc3ccc(OCc4ccccc4)cc3)cc2)no1 (stereo not given) |  |  | inactive | 7.00 | 6.82 | 10 to 40 | 5 to 15 | 
11 | CC(=O)N(C)Cc1nc(-c2ccc(Oc3ccc(OCc4ccccc4)cc3)cc2)no1 | inactive | inactive | inactive |  |  |  |  | 
12 | CC(NC(=O)OC(C)(C)C)c1nc(-c2ccc(Oc3ccc(OCc4ccccc4)cc3)cc2)no1 (stereo not given) | inactive |  |  |  |  |  |  | 
13 | CC(=O)NC(C)(C)c1nc(-c2ccc(Oc3ccc(OCc4ccccc4)cc3)cc2)no1 | inactive | inactive | inactive |  |  |  |  | 
